Three molecules from ChEMBL document CHEMBL5678810 can be followed below.

For test [1], the target named is T1, Serine/threonine-protein kinase TAO1 (Homo sapiens) (UniProt Q7L7X3).
T1 sequence (whole entry): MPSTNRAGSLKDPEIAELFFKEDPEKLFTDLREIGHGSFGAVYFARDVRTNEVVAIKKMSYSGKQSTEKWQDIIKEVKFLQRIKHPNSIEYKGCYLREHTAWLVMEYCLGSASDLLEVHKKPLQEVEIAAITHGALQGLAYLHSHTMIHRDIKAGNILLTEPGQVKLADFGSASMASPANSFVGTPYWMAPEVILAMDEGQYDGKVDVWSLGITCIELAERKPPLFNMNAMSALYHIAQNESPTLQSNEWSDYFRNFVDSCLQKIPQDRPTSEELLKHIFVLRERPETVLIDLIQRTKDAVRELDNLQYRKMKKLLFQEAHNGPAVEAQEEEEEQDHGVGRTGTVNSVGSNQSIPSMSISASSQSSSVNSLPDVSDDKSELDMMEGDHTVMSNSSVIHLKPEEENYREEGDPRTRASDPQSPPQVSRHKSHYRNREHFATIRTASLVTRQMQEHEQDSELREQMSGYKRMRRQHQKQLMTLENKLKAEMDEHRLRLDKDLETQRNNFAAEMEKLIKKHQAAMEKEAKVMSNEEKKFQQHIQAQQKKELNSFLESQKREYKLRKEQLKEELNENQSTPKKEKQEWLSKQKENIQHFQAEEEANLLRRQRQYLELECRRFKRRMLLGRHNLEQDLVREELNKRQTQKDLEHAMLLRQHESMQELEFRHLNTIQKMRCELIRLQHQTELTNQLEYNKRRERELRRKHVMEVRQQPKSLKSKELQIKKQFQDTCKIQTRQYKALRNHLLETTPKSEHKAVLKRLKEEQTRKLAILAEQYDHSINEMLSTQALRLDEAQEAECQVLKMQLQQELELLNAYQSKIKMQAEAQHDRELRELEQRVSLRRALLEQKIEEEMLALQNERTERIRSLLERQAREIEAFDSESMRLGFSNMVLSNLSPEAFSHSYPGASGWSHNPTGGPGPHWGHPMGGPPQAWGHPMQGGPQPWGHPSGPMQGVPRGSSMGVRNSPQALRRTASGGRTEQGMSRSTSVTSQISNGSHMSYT
Put plainly: Inhibition of T7 bacteriophage fused human TAOK1 at 10 uM by KINOMEscan analysis relative to control.

Test [2] has as its target Mitogen-activated protein kinase kinase kinase 20 (Homo sapiens) (UniProt Q9NYL2). Put plainly: Inhibition of T7 bacteriophage fused human ZAK at 10 uM by KINOMEscan analysis relative to control.
The target of test [3] is T2, Serine/threonine-protein kinase ULK3 (Homo sapiens) (UniProt Q6PHR2).
T2 sequence (whole entry): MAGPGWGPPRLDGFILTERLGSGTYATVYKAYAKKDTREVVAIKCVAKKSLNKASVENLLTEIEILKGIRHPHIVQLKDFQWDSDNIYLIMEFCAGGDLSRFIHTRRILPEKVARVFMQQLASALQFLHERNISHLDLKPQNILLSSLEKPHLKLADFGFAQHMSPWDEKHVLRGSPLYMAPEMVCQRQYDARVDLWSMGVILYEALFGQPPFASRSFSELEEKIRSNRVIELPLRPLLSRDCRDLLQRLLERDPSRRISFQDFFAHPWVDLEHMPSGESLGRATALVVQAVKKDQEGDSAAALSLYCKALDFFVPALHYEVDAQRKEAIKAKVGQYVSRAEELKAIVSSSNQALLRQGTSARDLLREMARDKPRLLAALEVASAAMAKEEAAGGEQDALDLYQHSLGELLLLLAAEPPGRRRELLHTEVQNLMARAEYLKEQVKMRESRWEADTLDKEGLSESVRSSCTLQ
As to the kind of experiment: Inhibition of T7 bacteriophage fused human ULK3 at 10 uM by KINOMEscan analysis relative to control.

Test [4] deals with Tyrosine-protein kinase SYK (Homo sapiens) (UniProt P43405). As to the kind of experiment: Inhibition of T7 bacteriophage fused human SYK at 10 uM by KINOMEscan analysis relative to control.
The target of test [5] is T3, Mitogen-activated protein kinase kinase kinase 19 (Homo sapiens) (UniProt Q56UN5).
T3 sequence (whole entry): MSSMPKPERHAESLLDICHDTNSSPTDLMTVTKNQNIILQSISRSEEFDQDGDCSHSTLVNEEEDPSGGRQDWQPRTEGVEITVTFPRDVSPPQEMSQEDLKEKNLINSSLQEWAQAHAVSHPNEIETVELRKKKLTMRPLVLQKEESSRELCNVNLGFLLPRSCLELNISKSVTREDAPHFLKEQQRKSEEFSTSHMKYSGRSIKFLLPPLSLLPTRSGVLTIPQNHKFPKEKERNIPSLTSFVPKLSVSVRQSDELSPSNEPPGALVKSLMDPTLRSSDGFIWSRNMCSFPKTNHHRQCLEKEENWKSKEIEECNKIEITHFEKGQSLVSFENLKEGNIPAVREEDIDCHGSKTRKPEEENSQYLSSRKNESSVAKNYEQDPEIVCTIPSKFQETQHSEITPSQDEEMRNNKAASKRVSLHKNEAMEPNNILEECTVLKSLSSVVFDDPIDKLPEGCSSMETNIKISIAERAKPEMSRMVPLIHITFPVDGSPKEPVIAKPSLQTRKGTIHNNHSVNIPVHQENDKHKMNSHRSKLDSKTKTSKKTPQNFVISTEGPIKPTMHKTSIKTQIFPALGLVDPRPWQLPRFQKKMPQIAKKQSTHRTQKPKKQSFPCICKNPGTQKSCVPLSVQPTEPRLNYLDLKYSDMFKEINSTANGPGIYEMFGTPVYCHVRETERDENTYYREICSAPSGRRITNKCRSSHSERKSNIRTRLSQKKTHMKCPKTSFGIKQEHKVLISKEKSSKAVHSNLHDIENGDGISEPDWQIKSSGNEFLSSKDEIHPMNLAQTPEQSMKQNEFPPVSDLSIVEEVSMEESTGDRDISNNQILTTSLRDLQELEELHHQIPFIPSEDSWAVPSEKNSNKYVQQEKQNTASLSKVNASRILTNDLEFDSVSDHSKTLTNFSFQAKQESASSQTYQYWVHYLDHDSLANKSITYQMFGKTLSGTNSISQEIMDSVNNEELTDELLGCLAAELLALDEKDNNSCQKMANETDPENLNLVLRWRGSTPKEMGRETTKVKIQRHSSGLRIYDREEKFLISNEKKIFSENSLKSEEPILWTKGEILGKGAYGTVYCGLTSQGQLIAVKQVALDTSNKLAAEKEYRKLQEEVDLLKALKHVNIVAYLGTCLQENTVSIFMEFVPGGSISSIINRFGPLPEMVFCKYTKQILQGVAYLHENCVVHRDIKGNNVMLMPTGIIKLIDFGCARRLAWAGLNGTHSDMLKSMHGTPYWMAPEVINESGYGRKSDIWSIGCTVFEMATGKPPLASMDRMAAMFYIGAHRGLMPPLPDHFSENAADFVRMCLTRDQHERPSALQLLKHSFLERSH
Put plainly: Inhibition of T7 bacteriophage fused human YSK4 at 10 uM by KINOMEscan analysis relative to control.

Chain of Mitogen-activated protein kinase kinase kinase 20 (Homo sapiens) (Q9NYL2 2-800 limits assumed): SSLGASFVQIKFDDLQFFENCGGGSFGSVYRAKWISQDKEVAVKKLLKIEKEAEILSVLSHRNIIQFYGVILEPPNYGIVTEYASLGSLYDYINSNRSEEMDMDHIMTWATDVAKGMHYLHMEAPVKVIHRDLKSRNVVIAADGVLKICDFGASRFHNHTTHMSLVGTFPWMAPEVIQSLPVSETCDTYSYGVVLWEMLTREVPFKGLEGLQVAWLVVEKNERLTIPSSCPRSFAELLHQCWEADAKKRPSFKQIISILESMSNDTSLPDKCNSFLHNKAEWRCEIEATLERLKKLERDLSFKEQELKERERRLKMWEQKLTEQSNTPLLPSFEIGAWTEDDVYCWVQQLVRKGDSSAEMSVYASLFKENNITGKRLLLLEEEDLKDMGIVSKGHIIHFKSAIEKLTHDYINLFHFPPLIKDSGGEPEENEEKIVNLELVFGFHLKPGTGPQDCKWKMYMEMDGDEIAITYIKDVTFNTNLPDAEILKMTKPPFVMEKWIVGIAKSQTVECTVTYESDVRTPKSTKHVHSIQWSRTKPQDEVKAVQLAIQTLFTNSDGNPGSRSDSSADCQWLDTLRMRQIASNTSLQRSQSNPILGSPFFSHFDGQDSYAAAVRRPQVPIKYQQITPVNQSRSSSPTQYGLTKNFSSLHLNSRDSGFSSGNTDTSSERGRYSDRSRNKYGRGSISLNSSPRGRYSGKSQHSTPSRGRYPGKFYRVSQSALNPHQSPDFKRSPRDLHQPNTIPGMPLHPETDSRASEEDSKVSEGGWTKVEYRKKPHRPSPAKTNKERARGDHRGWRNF

On to `COc1cc(N2CCC(N3CCN(C)CC3)CC2)ccc1Nc1ncc2c(n1)N(C)c1ccccc1C(=O)N2C`, for which the inhibition in test [1] came to 28%; in test [2] it was 99%; in test [3], 100%; in test [4], 100%; in test [5], 99%.

Take `COc1cc(C(=O)N2CCC(N3CCN(C)CC3)CC2)ccc1Nc1ncc2c(n1)N(C1CCCC1)c1ccccc1C(=O)N2C`: the inhibition turned out to be 51% in test [1]; 100% in test [2]; 100% in test [3]; 100% in test [4]; 100% in test [5].

As for `CCOc1cc(C(=O)N2CCC(N3CCN(C)CC3)CC2)ccc1Nc1ncc2c(n1)N(C1CCCC1)c1ccccc1C(=O)N2C`, the inhibition was 79% in test [1]; 100% in test [2]; 100% in test [3]; 100% in test [4]; 100% in test [5].
